US7074789B2, “Kinase inhibitors” (Amgen Inc., priority 1999, dated 2006)

What was measured:
Assay type in all cases: biochemical
[1] = biological target: T1, FGFR1 (Homo sapiens, UniProt P11362); experiment: Kinase inhibition assay (33P transfer), FGFR1; settings: read-out: FGFR1-1
T1 construct: Kinases are expressed as either kinase domains or full length constructs; made in house

[2] = biological target: T2, EGFR (Homo sapiens, UniProt P00533); experiment: Kinase inhibition assay (33P transfer), EGFR; settings: Table 2, kinase inhibition class; read-out: EGFR-1
T2 construct: Kinases are expressed as either kinase domains or full length constructs; made in house
Summary of the method: (§1)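 Each enzyme, purified to near homogeneity by affinity chromatography, was incubated with ATP carrying 33P and a substrate polymer fixed to the plate. Unbound label was removed with dilute phosphoric acid (0.5%) before adding scintillant and counting. Potency is given as the compound level cutting label uptake by 50%.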

[3] = biological target: T3, Kdr (Homo sapiens, UniProt P35968); experiment: Kinase inhibition assay (33P transfer), Kdr; settings: read-out: KDR-1
T3 construct: Kinases are expressed as either kinase domains or full length constructs; made in house
Summary of the method: (§2)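 Enzyme activity is taken as the amount of 33PO4 moved from ATP onto poly(Glu, Tyr) 4:1 or poly(Arg, Ser) 3:1 fixed to the plate surface. Unbound label is removed with 0.5% phosphoric acid before scintillation counting.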

[4] = biological target: T4, Flt-1 (Homo sapiens, UniProt P17948); experiment: Kinase inhibition assay (33P transfer), Flt-1
T4 construct: Kinases are expressed as either kinase domains or full length constructs; made in house
Summary of the method: as §1

[5] = biological target: T5, Lck (Homo sapiens, UniProt P06239); experiment: Kinase inhibition assay (33P transfer), Lck; settings: read-out: Lck-1
T5 construct: Kinases are expressed as either kinase domains or full length constructs; made in house
Summary of the method: as §2

[6] = biological target: T6, Lyn (Homo sapiens, UniProt P07948); experiment: Kinase inhibition assay (33P transfer), Lyn; settings: Table 6, Lyn-1 kinase inhibition class
T6 construct: Kinases are expressed as either kinase domains or full length constructs; made in house
Summary of the method: as §1

[7] = biological target: T7, IGFR-1 (Homo sapiens, UniProt P08069); experiment: Kinase inhibition assay, IGFR-1 (Table 2); settings: Table 2, kinase inhibition class
T7 construct: Kinases are expressed as either kinase domains or full length constructs; made in house

[8] = biological target: T8, AKT (Homo sapiens, UniProt Q9Y243); experiment: Kinase inhibition assay (33P transfer), AKT; settings: Table 2, kinase inhibition class; read-out: AKT3-1
T8 construct: Kinases are expressed as either kinase domains or full length constructs; made in house
Summary of the method: as §2

[9] = biological target: T9, PDGFRB (Homo sapiens, UniProt P09619); experiment: Kinase inhibition assay (33P transfer), PDGFRB; settings: read-out: PDGFRB-1
T9 construct: Kinases are expressed as either kinase domains or full length constructs; made in house

[10] = biological target: T10, Src (Homo sapiens, UniProt P12931); experiment: Kinase inhibition assay (33P transfer), Src; settings: Table 6, Src-1 kinase inhibition class
T10 construct: Kinases are expressed as either kinase domains or full length constructs; made in house
Summary of the method: as §1

[11] = biological target: T11, Zap-70 (Homo sapiens, UniProt P43403); experiment: Kinase inhibition assay (33P transfer), Zap-70; settings: read-out: Zap-1
T11 construct: Kinases are expressed as either kinase domains or full length constructs; made in house
T11 sequence (P43403 1-619): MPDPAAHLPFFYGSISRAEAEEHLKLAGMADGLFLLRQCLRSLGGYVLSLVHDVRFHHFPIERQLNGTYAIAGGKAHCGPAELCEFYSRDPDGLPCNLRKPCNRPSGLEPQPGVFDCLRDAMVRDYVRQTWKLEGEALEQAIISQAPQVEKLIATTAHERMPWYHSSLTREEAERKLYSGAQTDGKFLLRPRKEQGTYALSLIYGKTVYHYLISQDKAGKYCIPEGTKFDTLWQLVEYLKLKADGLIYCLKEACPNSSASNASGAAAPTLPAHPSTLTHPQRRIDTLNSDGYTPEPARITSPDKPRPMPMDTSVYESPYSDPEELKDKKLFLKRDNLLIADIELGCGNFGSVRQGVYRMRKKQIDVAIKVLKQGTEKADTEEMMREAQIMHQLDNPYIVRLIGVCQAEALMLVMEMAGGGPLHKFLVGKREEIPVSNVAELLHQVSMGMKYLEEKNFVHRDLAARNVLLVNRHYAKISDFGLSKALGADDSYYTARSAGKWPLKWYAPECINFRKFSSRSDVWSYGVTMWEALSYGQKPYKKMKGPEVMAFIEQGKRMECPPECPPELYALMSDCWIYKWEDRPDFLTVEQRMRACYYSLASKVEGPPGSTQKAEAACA
Summary of the method: as §2

[12] = biological target: T12, Ret-1 (Homo sapiens, UniProt P07949); experiment: Kinase inhibition assay (33P transfer), Ret; settings: Table 6, Ret-1 kinase inhibition class
T12 construct: Kinases are expressed as either kinase domains or full length constructs; made in house

[13] = biological target: T13, c-Met (Homo sapiens, UniProt P08581); experiment: Kinase inhibition assay (33P transfer), c-Met; settings: Table 2, kinase inhibition class; read-out: Met-1
T13 construct: Kinases are expressed as either kinase domains or full length constructs; made in house
Summary of the method: as §1

[14] = biological target: T14, Tek (Homo sapiens, UniProt Q02763); experiment: Kinase inhibition assay (33P transfer), Tek; settings: read-out: Tek-1
T14 construct: Kinases are expressed as either kinase domains or full length constructs; made in house
Summary of the method: as §1

[15] = biological target: T15, Fyn (Homo sapiens, UniProt P06241); experiment: Kinase inhibition assay (33P transfer), Fyn; settings: read-out: Fyn-1
T15 construct: Kinases are expressed as either kinase domains or full length constructs; made in house
Summary of the method: as §1

[16] = biological target: T16, ErbB2 (Homo sapiens, UniProt P04626); experiment: Kinase inhibition assay (33P transfer), ErbB2; settings: read-out: ErbB2-2
T16 construct: Kinases are expressed as either kinase domains or full length constructs; made in house
Summary of the method: as §1

[17] = biological target: T17, Itk (Homo sapiens, UniProt Q08881); experiment: Kinase inhibition assay (33P transfer), Itk; settings: read-out: Itk-1
T17 construct: Kinases are expressed as either kinase domains or full length constructs; made in house
T17 sequence (Q08881 1-620): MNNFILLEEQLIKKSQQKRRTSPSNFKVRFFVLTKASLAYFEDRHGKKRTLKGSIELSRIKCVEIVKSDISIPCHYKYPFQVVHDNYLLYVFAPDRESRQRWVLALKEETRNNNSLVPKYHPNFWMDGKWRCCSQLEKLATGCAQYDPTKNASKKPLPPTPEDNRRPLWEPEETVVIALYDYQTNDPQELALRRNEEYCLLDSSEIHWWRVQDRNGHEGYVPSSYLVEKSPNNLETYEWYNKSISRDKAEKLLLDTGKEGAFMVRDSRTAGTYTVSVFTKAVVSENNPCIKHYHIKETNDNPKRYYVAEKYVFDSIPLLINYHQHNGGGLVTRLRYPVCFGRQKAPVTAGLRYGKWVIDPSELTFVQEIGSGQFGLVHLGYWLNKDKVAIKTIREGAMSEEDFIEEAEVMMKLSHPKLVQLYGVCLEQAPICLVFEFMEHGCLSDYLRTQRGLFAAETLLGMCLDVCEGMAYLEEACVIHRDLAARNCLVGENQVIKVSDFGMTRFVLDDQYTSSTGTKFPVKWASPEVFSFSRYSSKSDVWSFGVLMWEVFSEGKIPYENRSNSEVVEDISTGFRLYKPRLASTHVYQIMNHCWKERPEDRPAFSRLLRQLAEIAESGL
Summary of the method: as §1

[18] = biological target: T18, ErbB4 (Homo sapiens, UniProt Q15303); experiment: Kinase inhibition assay (33P transfer), ErbB4; settings: read-out: ErbB4-1
T18 construct: Kinases are expressed as either kinase domains or full length constructs; made in house

[19] = biological target: T19, Hck-1 (Homo sapiens, UniProt P08631); experiment: Kinase inhibition assay (33P transfer), Hck; settings: Table 6, Hck-1 kinase inhibition class
T19 construct: Kinases are expressed as either kinase domains or full length constructs; made in house
T19 sequence (P08631 whole entry, the tested form may be a part): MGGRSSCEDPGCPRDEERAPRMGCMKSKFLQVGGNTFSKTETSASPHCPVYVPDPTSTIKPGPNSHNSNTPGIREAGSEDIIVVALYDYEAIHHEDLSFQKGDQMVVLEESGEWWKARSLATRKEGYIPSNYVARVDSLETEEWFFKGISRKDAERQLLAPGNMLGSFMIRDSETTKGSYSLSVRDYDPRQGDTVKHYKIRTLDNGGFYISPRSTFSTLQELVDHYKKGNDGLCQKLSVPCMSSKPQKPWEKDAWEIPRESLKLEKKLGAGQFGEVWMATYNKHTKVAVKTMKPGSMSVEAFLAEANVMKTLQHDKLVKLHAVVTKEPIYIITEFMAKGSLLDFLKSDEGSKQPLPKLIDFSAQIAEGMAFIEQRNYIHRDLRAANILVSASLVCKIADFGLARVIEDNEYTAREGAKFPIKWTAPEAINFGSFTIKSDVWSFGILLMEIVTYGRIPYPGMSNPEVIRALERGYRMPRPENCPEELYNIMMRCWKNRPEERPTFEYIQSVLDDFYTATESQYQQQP

T12 sequence (P07949 29-1114): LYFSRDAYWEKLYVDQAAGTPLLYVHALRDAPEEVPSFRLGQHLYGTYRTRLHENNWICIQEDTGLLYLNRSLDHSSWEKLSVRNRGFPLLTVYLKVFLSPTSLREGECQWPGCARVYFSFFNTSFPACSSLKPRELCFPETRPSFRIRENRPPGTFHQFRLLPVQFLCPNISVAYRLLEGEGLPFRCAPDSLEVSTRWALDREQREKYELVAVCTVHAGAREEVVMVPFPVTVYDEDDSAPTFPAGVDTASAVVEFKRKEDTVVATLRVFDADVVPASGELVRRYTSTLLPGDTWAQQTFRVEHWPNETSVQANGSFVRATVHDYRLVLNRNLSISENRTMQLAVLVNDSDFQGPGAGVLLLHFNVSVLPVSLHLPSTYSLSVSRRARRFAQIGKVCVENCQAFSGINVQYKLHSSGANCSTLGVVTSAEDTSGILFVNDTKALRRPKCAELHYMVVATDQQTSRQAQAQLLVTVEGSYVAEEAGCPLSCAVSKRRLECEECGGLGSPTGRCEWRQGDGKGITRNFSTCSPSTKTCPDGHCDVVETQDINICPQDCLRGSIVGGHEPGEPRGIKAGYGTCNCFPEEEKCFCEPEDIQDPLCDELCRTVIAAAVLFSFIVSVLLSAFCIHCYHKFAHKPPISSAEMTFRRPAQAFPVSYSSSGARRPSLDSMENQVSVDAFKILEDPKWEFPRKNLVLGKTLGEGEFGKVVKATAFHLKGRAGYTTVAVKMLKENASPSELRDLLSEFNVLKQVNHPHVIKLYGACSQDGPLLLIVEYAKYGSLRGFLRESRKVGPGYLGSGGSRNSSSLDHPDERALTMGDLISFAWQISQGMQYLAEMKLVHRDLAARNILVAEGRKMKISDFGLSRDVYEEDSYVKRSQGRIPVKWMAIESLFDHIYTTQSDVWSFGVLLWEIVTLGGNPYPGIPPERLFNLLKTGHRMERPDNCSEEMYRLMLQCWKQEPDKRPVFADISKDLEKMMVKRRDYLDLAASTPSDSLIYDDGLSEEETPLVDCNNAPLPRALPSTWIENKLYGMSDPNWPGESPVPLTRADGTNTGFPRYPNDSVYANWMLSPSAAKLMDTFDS
T6 sequence (P07948 whole entry, species assumed, the tested form may be a part): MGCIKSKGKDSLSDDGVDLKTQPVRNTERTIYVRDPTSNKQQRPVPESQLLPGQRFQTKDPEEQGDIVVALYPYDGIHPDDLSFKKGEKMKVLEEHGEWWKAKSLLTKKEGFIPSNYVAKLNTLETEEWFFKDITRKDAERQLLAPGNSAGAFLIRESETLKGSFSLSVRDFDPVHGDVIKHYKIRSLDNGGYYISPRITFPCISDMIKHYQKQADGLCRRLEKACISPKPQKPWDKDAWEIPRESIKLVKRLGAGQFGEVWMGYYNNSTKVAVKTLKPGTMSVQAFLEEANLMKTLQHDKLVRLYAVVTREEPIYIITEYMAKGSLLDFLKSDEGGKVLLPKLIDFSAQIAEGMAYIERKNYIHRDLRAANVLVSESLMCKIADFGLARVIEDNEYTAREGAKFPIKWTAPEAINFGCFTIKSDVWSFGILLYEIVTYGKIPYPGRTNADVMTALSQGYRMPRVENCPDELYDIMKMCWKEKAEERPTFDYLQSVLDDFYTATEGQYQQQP
T16 sequence (P04626 23-1255, species assumed): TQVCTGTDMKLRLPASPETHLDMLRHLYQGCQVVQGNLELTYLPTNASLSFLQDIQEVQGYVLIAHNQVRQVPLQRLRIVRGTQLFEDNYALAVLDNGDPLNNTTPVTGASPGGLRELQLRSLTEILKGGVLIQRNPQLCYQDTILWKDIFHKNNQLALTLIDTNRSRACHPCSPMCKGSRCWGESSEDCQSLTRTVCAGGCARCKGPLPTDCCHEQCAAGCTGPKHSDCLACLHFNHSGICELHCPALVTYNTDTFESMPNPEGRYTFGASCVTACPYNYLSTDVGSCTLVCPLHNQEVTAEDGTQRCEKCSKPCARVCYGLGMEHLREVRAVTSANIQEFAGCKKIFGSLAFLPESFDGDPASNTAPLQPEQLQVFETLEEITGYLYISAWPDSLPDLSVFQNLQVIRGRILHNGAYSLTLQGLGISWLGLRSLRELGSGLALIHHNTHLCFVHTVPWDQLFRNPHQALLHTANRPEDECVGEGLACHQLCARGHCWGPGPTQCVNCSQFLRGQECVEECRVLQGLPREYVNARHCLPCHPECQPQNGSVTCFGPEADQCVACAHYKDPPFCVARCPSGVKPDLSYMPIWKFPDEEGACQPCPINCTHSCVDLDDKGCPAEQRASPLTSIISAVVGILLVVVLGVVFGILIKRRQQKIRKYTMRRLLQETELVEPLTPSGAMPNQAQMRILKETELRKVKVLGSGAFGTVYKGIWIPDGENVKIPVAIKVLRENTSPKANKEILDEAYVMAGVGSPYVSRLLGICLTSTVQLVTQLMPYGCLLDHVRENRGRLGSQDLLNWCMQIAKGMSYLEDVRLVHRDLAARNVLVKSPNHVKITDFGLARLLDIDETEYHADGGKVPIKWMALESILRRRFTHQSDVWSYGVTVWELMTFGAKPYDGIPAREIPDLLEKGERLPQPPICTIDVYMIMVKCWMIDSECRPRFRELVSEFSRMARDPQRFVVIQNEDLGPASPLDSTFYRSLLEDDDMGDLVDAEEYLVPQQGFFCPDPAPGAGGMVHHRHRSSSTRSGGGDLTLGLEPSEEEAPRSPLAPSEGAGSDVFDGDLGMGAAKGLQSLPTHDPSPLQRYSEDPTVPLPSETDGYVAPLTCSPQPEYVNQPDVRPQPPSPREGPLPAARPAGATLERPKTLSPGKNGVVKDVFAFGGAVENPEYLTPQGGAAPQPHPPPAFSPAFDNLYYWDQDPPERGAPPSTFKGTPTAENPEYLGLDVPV
T3 sequence (P35968 20-1356, species assumed): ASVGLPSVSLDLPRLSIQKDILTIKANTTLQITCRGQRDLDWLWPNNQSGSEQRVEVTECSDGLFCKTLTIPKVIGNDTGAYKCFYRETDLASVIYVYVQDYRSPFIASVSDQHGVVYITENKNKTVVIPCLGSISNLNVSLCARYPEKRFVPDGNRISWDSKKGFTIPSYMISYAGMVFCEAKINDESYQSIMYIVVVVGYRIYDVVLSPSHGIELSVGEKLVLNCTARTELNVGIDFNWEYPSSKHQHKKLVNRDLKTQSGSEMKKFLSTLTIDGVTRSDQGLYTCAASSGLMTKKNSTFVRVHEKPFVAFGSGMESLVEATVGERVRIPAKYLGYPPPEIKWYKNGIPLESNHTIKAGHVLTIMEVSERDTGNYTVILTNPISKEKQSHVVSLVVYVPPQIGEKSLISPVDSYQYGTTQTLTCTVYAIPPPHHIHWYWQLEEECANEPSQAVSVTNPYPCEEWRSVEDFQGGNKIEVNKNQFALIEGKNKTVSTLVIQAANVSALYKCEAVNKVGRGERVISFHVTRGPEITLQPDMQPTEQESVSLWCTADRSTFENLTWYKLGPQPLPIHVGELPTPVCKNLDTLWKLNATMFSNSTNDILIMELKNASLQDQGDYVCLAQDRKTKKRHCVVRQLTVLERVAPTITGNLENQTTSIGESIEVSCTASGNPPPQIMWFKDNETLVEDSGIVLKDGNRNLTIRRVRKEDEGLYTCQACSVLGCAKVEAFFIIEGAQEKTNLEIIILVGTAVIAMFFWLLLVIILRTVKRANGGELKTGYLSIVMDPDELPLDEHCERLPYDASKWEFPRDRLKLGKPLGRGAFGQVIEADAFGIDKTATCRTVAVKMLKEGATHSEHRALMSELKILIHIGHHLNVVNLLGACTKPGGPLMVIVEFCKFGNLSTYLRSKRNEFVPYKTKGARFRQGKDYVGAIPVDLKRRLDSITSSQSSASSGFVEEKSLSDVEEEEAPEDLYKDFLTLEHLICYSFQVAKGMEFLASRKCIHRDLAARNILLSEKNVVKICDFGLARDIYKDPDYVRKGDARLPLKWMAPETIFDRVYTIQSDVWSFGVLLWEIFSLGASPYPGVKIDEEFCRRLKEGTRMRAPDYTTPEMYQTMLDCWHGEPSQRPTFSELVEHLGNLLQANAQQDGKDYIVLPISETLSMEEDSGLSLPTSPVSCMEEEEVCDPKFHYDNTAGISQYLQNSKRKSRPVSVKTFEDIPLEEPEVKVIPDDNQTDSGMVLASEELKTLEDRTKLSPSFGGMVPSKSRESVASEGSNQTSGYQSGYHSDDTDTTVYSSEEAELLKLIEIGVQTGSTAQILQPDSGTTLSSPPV

Row | SMILES | IC50 [1] [µM] | IC50 [2] [µM] | IC50 [3] [µM] | IC50 [4] [µM] | IC50 [5] [µM] | IC50 [6] [µM] | IC50 [7] [µM] | IC50 [8] [µM] | IC50 [9] [µM] | IC50 [10] [µM] | IC50 [11] [µM] | IC50 [12] [µM] | IC50 [13] [µM] | IC50 [14] [µM] | IC50 [15] [µM] | IC50 [16] [µM] | IC50 [17] [µM] | IC50 [18] [µM] | IC50 [19] [µM]
1 | COc1cc(Nc2ncnc(-n3c(NCc4ccccn4)nc4ccccc43)n2)cc(OC)c1OCCn1ccnn1 [Compound 942] | < 0.707 | > 7.96 | < 0.707 | < 0.707 | 4.24 to 6.19 | < 0.707 | 4.24 to 6.19 | > 7.96 | < 0.707 | > 7.96 | > 7.96 | < 0.707 | > 7.96 | > 7.96 | > 7.96 | > 7.96 | > 7.96 | > 7.96 | > 7.96
2 | COc1cc(Nc2ncnc(-n3c(NCc4ccccn4)nc4ccccc43)n2)cc(OC)c1OCCN1CCOCC1 [Compound 519] | < 0.685 | > 7.71 | < 0.685 | 0.685 to 4.11 | 0.685 to 4.11 | 6 to 7.71 | 0.685 to 4.11 | > 7.71 | < 0.685 | > 7.71 | > 7.71 | < 0.685 | > 7.71 | > 7.71 | > 7.71 | > 7.71 | > 7.71 | > 7.71 | > 7.71
3 | COc1cc(Nc2ncnc(-n3c(NCc4ccc(F)cc4)nc4ccccc43)n2)cc(OC)c1OC [Compound 514] | < 0.798 | > 8.97 | < 0.798 | < 0.798 | > 8.97 | > 8.97 | > 8.97 | > 8.97 | < 0.798 | > 8.97 | > 8.97 | < 0.798 | > 8.97 | > 8.97 | > 8.97 | > 8.97 | > 8.97 | > 8.97 | > 8.97

Results, then the compound that gave them:

Row | IC50 [1] [µM] | IC50 [2] [µM] | IC50 [3] [µM] | IC50 [4] [µM] | IC50 [5] [µM] | IC50 [6] [µM] | IC50 [7] [µM] | IC50 [8] [µM] | IC50 [9] [µM] | IC50 [10] [µM] | IC50 [11] [µM] | IC50 [12] [µM] | IC50 [13] [µM] | IC50 [14] [µM] | IC50 [15] [µM] | IC50 [16] [µM] | IC50 [17] [µM] | IC50 [18] [µM] | IC50 [19] [µM] | SMILES
4 | 0.81 to 4.86 | 4.86 to 7.09 | < 0.81 | 0.81 to 4.86 | 0.81 to 4.86 | > 9.12 | 7.09 to 9.12 | > 9.12 | < 0.81 | 0.81 to 4.86 | > 9.12 | 4.86 to 7.09 | > 9.12 | > 9.12 | 0.81 to 4.86 | 4.86 to 7.09 | 0.81 to 4.86 | 4.86 to 7.09 | > 9.12 | COc1cc(Nc2ncnc(-n3c(=O)[nH]c4ccccc43)n2)cc(OC)c1OCCN1CCOCC1 [Compound 1040]
5 | > 11.3 | 1.01 to 6.04 | < 1.01 | > 11.3 | 1.01 to 6.04 | 6.04 to 8.81 | 6.04 to 8.81 | > 11.3 | 1.01 to 6.04 | > 11.3 | 1.01 to 6.04 | < 1.01 | 8.81 to 11.3 | 1.01 to 6.04 | > 11.3 | > 11.3 | > 11.3 | 1.01 to 6.04 | > 11.3 | NC(=O)c1ccc(Nc2ncnc(-c3cccnc3NCc3ccccc3)n2)cc1 [Compound 1082]
